The conditions of data set [1]: cited from earlier work; for penetration of the central nervous system: in vivo; for absorption from the gastro-intestinal tract: oral.
Data set [2] concerns the target T1, acetylcholinesterase (Mus musculus, UniProt P21836).
T1 construct: A solubilized preparation of acetylcholinesterase was prepared from mouse whole brain (minus cerebellum); from tissue; host or cells: mouse whole brain (minus cerebellum), membrane pellet solubilized with 1% Triton
T1 sequence (P21836 32-614): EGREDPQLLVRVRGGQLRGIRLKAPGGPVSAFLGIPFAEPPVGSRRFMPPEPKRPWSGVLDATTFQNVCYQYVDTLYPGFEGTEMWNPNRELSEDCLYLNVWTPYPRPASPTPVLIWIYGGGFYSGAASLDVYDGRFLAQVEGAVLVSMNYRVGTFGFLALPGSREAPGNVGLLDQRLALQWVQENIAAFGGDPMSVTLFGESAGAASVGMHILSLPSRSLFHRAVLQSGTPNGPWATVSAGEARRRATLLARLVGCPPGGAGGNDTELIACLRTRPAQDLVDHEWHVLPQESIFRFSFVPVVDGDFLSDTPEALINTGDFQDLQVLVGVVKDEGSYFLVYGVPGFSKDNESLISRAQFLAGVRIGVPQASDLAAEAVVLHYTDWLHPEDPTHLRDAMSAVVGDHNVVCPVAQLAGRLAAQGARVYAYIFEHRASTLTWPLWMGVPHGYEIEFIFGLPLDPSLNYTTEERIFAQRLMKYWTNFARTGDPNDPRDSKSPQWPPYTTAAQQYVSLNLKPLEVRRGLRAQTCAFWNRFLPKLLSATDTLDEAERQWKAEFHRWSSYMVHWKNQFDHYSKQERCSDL
Description: biochemical. It counts as biochemical. How it is done:
A solubilized preparation of acetylcholinesterase was prepared from mouse whole brain (minus cerebellum). The brain was homogenized with (100 mg/ml) phosphate buffer; pH 8.0, centrifuged, the supernatant discarded, and the pellet mixed with a similar volume as above of buffer pH 8.0 plus 1% Triton; mixed, centrifuged and the supernatant which contained most of the solubilized enzyme, was used for the subsequent determinations of anticholinesterase activity.
The activity of the enzyme (rate of hydrolysis of substrate, acetylthiocholine) was measured using at least 4 different concentrations of substrate, and at least 3 different concentrations of each inhibitor. The enzyme was incubated with inhibitor for periods ranging for 2-180 mins. at 37° C., substrate was then added, and its rate of hydrolysis measured by the spectrophotometric method of Ellman et al. (1961).

The test system of data set [3] is brain acetylcholinesterase. The settings on record: for relative in vivo activity compared to physostigmine versus in vitro data: comparison of Table 1 with Table 2; for Relative potency to physostigmine after oral administration / % cholinesterase inhibition 3 hours after s.c. administration / Relative potency to physostigmine after subcut. (s.c.) administration: mouse brain; for Relative potency to physostigmine after oral administration / Relative potency to physostigmine after subcut. (s.c.) administration: physostigmine = 100; for duration of brain acetylcholinesterase inhibition compared with physostigmine or miotine: parenteral administration. How it is done: The effect of each compound on brain acetylcholinesterase in vivo was measured, after subcutaneous or oral administration to mice. Animals were sacrificed, at different times ranging from 0.25-8 hours after drug administration. The brain was rapidly removed, and the enzyme acetylcholinesterase extracted and solubilized with 0.1% Triton, and its ability to hydrolyse acetylthiocholine assessed as described above (in vitro experiments), in comparison with the enzyme removed from mice injected with normal saline.

A further data set in a line: in vivo. To be noted: for selectivity ratio / LD50 at 3 h: mouse, in vivo. As to the method:
Mice were given one of at least three different doses of each compound, orally or subcutaneously, a minimum of 10 mice allotted to each dose. The number of animals which died at each dose within 3 hours was determined.
This experiment was repeated after the animals had been pretreated with atropine sulphate, which blocks both peripheral and central muscarinic receptors.
What is important is the safety of the drugs and the presence and severity of side effects that may occur at therapeutic doses. A commonly-used measure of drug safety is the therapeutic index--or LD50 /ED50 [formula]
It is assumed that the therapeutic effect of these anticholinesterase agents results from an elevation of brain cholinergic activity. This in turn, should be related to the degree of inhibition of acetylcholinesterase. For the purpose of the computation of the denominator of the therapeutic ratio, there is used the dose of drug that inhibits the activity of acetylcholinesterase by 50%. […] The numerator is the dose found to kill 50% of the animals within […] of a subcutaneous injection.

In data set [4] the test system is respiratory depressant effects of morphine. In kind it is in vivo. To be noted: rabbits; for duration of significant antagonism of the respiratory depressant effects of morphine: depending on drug and dose. How it is done: Different doses of the carbamate compounds were injected intravenously with morphine in rabbits Respiration rate, arterial blood gas tensions and pH were monitored continuously before and after drug administration for 4-5 hours. In another series of experiments the effect of the anticholinesterase drugs was assessed on the analgesic effect of opiates in rabbits after application of a nociceptive stimulus, i.e. electrical stimulation of the sciatic nerve.

For data set [5] the following is noted: in vivo; cited from earlier work.
Another data set concerns tardive dyskinesias. To be noted: injected intravenously; cited from earlier work.
The next data set deals with Huntingdon's chorea. The settings on record: injections; cited from earlier work.
In data set [6] the test system is acetylcholinesterase in the cerebro-spinal fluid. The settings on record: patients with Alzheimer's disease; Thal et al. 1983; cited from earlier work.
For data set [7] the following is noted: in vivo; cited from earlier work. The source holds these as a separate data set.
The conditions of data set [8]: eye drops; cited from earlier work.
Data set [9] has as its system acetylcholinesterase. To be noted: compared with the monoquaternary molecules; cited from earlier work.
The mark [10] stands for this setting: incubation of enzyme with inhibitor, 37° C.
Setting [11] is: Degree of protection afforded by pretreatment with atropine, ratio of LD50 after pretreatment with atropine sulphate 5 mg/kg to LD50 of drug alone.
Where [12] appears, read: Ratio whose head is drawing 10 (Table 3; oral LD50 compared with s.c. LD50), mice, oral versus s.c.
The mark [13] stands for this setting: sc, Therapeutic ratio LD50/ED50 s.c., mice, ED50 = dose inhibiting brain acetylcholinesterase by 50%.

The structures appear in SMILES notation. Like-named read-outs stand apart in the source and are kept apart here.

As to `CN(C)C(=O)Oc1cccc([N+](C)(C)C)c1` [neostigmine], in data set [1], the “penetration of the central nervous system” value (“penetration” for short) is reported as “do not penetrate the central nervous system to any significant extent” and the “absorption from the gastro-intestinal tract” value is listed as “only poorly absorbed from the gastro-intestinal tract”.
The term IC50 denotes the concentration that inhibits the measured activity by half. Low readings indicate greater potency in that assay, high ones weaker potency in that assay. A word on the LD50: it is the dose at which mortality reaches 50%. High values mean lower toxicity, low ones greater toxicity. Take `C=CCNC(=O)Oc1cccc(C(C)N(C)C)c1` (stereo not drawn) [RA14, N-allyl-3-[1-(dimethylamino)ethyl]phenyl carbamate]: the 50% inhibitory concentration (IC50) against acetylcholinesterase [2] worked out at 430 nM. Also, at acetylcholinesterase [2] (setting [10]), the “Time of peak activity” value came out at 120 min. Also, in data set [3] (at ED50 dose), the “duration of significant brain enzyme inhibition (>30%)” value was “more than 3 hours”. In data set [3], the “relative in vivo activity compared to physostigmine versus in vitro data” value (“relative in vivo activity” below) is reported as “relatively more active in vivo compared to physostigmine than one would expect from the in vitro data”. The “Relative potency to physostigmine after oral administration” value in data set [3] (oral) was 22. Also, in [3], the “% cholinesterase inhibition 3 hours after s.c. administration” value (shortened to “% cholinesterase inhibition 3 hours”) stood at 35%. Besides, in data set [3], the “Relative potency to physostigmine after subcut. (s.c.) administration” value (from here on “Relative potency … (s.c.) administration”) is on record as 15. Also, the “duration of brain acetylcholinesterase inhibition compared with physostigmine or miotine” value in data set [3] (in words) is “significantly longer duration”. The “protection by atropine against lethality” value in the data set “in vivo” (mice, atropine pretreatment, in words) is “considerably greater protection”. Besides, the selectivity ratio in the data set “in vivo” (setting [11]) was 8; in the data set “in vivo” (setting [12]), 4.4; in “in vivo” (decrease of acute toxicity (lethality) by the antidote atropine, mice, atropine), > 8; in the data set “in vivo” (setting [13]), 11.5. Moreover, in the data set “in vivo” (sc), the LD50 at 3 h is 69 µmol/kg. The “duration of significant antagonism of the respiratory depressant effects of morphine” value (“duration of significant antagonism … of morphine” for short) in data set [4] was in the range of 3 to 5 h.
What is called half-life is how long it takes for the measured level to halve. Turning to `CNC(=O)Oc1ccc2c(c1)[C@]1(C)CCN(C)[C@@H]1N2C` [Physostigmine, reference compound], on acetylcholinesterase [2], the IC50 came to 11 nM and the “Time of peak activity” value stood at 30 min. The “duration of significant brain enzyme inhibition (>30%)” value in data set [3] (mouse, in vivo) was “less than 2 hours”. In “in vivo” (sc), the 50% lethal dose (LD50) at 3 h is 3 µmol/kg. Moreover, the “duration of antagonism of the respiratory depressant effect of morphine” value in data set [4] (0.1-0.2 mg/kg) fell in the range of 30 to 60 min. For the same compound, the muscle fasciculations entry in data set [4] (with morphine) was “fasciculations are marked at the higher dose”. Moreover, the half-life in data set [5] is 20 to 40 min. In data set [1], the “penetration” value is given as “readily enters the brain”; the “absorption from the gastro-intestinal tract” value was “irregular and unpredictable”. Also, in the data set with tardive dyskinesias, the “improvement of tardive dyskinesias” value is listed as “significant but short lived improvement in a proportion of patients”. Besides, in the data set on Huntingdon's chorea, the “benefit in Huntingdon's chorea” value was “some benefit”. Moreover, the “block of acetylcholinesterase in cerebro-spinal fluid at dose giving maximum improvement in short term memory” value in [6] is listed as 50%.
Compound `CCNC(=O)Oc1cccc(C(C)N(C)C)c1` (stereo not drawn) [RA6, N-ethyl-3[1-(dimethylamino)ethyl]phenyl carbamate] registered an IC50 against acetylcholinesterase [2] of 400 nM. Besides, the “Time of peak activity” value on acetylcholinesterase [2] (setting [10]) worked out at 120 min. Besides, in data set [3] (at ED50 dose), the “duration of significant brain enzyme inhibition (>30%)” value is recorded as “more than 3 hours”. Moreover, the “brain enzyme inhibition after 7 hours” value in data set [3] (at ED50 dose, 7 hours) turned out to be 36%. Further, in data set [3], the “relative in vivo activity” value is “relatively more active in vivo compared to physostigmine than one would expect from the in vitro data”, the “% cholinesterase inhibition 3 hours” value is 35% and the “Relative potency … (s.c.) administration” value came to 11. The “Relative potency to physostigmine after oral administration” value in [3] (oral) amounted to 19. The “bioavailability after oral administration compared with physostigmine” value in [3] (oral, in words) is listed as “better bioavailability after oral administration than physostigmine”. Besides, the “duration of brain acetylcholinesterase inhibition compared with physostigmine or miotine” value in data set [3] (in words) is recorded as “significantly longer duration”. The “absorption from the gastro-intestinal tract compared with physostigmine” value in the data set “in vivo” (from oral versus s.c. LD50) is reported as “more efficiently absorbed from the gastro-intestinal tract than is physostigmine”. Besides, in the data set “in vivo” (setting [11]), the selectivity ratio came to 2.6. The selectivity ratio in the data set “in vivo” (setting [12]) amounted to 2.1. This compound also registered an LD50 at 3 h in the data set “in vivo” (sc) of 96 µmol/kg. Moreover, the selectivity ratio in “in vivo” (setting [13]) was determined as 11.9. Also, in [4], the “duration of significant antagonism … of morphine” value lay within 3 to 5 h.
For the compound `CCCNC(=O)Oc1cccc(C(C)N(C)C)c1` (stereo not drawn) [RA15, N-propyl-3[1-(dimethylamino)ethyl]phenyl carbamate], half-maximal inhibition at acetylcholinesterase [2] (IC50) was put at 110 nM. In addition, the “Time of peak activity” value at acetylcholinesterase [2] (setting [10]) was 120 min. In addition, in data set [3] (at ED50 dose), the “duration of significant brain enzyme inhibition (>30%)” value was “more than 3 hours”. In [3], the “relative in vivo activity” value is given as “relatively more active in vivo compared to physostigmine than one would expect from the in vitro data”, the “% cholinesterase inhibition 3 hours” value is reported as 37% and the “Relative potency … (s.c.) administration” value worked out at 33. Also, in data set [3] (oral), the “Relative potency to physostigmine after oral administration” value stood at 32. Further, the “duration of brain acetylcholinesterase inhibition compared with physostigmine or miotine” value in [3] (in words) is on record as “significantly longer duration”. For the same compound, the selectivity ratio in the data set “in vivo” (setting [11]) is 4.1. Besides, the selectivity ratio in “in vivo” (setting [12]) came to 4.5. For the same compound, the 50% lethal dose (LD50) at 3 h in the data set “in vivo” (sc) was 31 µmol/kg. For the same compound, the selectivity ratio in “in vivo” (setting [13]) was found to be 11.1. Further, in data set [4], the “duration of significant antagonism … of morphine” value was 3 to 5 h.
As for `CN(C)C(=O)Oc1ccc[n+](C)c1` [pyridostigmine], in [1], the “penetration” value was “do not penetrate the central nervous system to any significant extent” and the “absorption from the gastro-intestinal tract” value is on record as “only poorly absorbed from the gastro-intestinal tract”.
With `CNC(=O)Oc1cccc(C(C)N(C)C)c1` (stereo not drawn) [Miotine, reference compound], on acetylcholinesterase [2], half-maximal inhibition (IC50) required 13 nM. On acetylcholinesterase [2] (setting [10]), the “Time of peak activity” value amounted to 30 min. Moreover, in [3] (oral), the “Relative potency to physostigmine after oral administration” value was 300. In [3], the “% cholinesterase inhibition 3 hours” value was 5% and the “Relative potency … (s.c.) administration” value stood at 100. Further, the selectivity ratio in the data set “in vivo” (setting [12]) was 1.2. The compound further yielded an LD50 at 3 h in the data set “in vivo” (sc) of 4.5 µmol/kg. Besides, the selectivity ratio in the data set “in vivo” (setting [13]) was 4.9. Further, the insecticidal activity result in [7] is on record as “claimed to be an insecticide”. Further, the myopic activity entry in [8] is “myopic agent”.
Turning to `CN(CCCCCCCCCCN(C)C(=O)Oc1cccc([N+](C)(C)C)c1)C(=O)Oc1cccc([N+](C)(C)C)c1` [Demacarium], the “selectivity for acetylcholinesterase over butyrylcholinesterase” value in the data set on acetylcholinesterase [9] is given as “more selective inhibitors of acetylcholinesterase than butyrylcholinesterase”.
For `CC[N+](CC)(CCNC(=O)C(=O)NCC[N+](CC)(CC)Cc1ccccc1Cl)Cc1ccccc1Cl` [Ambenonium], the “selectivity for acetylcholinesterase over butyrylcholinesterase” value with acetylcholinesterase [9] is reported as “more selective inhibitors of acetylcholinesterase than butyrylcholinesterase”.
